Consider 3 compounds from US20220160824A1, “COMPOUNDS FOR USE IN THE TREATMENT OF PARKINSON'S DISEASE” (UNIVERSITY OF THE WITWATERSRAND, JOHANNESBURG, priority 2018, published 2022).

The subject of one experiment is HEK293 cells. In words: MTT cell viability assay, HEK293 cells treated with α-Synuclein. The experiment is classed as cell-based, human. The settings on record: for cell viability after α-Synuclein treatment: 200 nM and 500 nM. The text has this: The effects of treatment of cells with a specific substance or protein on cell viability can be determined by the MTT (3-(4,5-dimethylthiazol-2-yl)-2,5-diphenyltetrazolium bromide) assay (Riss et al., 2016). MTT is a tetrazolium salt that is yellow in colour that is converted to the purple formazan crystals by the mitochondrial enzyme succinate dehydrogenase (Stockert et al., 2012). The succinate dehydrogenase is only active in viable cells and therefore only viable cells will convert MTT to formazan (Stockert et al., 2012). The MTT assay was chosen over other cell viability assays, such as the ATP assay, the resoazurin reduction assay and the protease viability marker assay, due to its high throughput screening. For this study, HEK293 cells were first seeded at 1.4×10^4 cells per well in a 24-well plate while SH-SY5Y cells were seeded at 1.8×10^4 due to a slower growth rate. The cells were then incubated overnight to allow reattachment. Cells were then treated with 200 nM and 500 nM α-Synuclein, in order to induce a PD-like state. Following treatment, the cells were incubated for 48 hours to determine the effects of α-Synuclein on cell viability […]. The known apoptosis inducer, protocatechuic acid (PCA) was used as the positive control. Following incubation, 200 μl of […] was then added to each well and incubated for 2 hours at 37° C. to allow the formation of formazan crystals. The remaining MTT was discarded and the formazan crystals were dissolved by the addition of 200 μl dimethyl sulfoxide (DMSO). The samples were then added to a 96-well plate at 100 μl in duplicates and the absorbance was read at 570 nm using an ELISA plate reader. High absorbance is indicative of a high number of viable cells.
Statistical evaluation of the data was conducted by performing the […] with a confidence interval of 95% and as a result, results were considered significant when the p-value was lower than 0.05 was considered significant (*p<0.05, **p<0.01 and ***p<0.001) (Johnston, 1970).

The next experiment concerns SH-SY5Y cells. As to the kind of experiment: MTT cell viability assay, SH-SY5Y cells treated with α-Synuclein. The experiment is classed as cell-based. The settings on record: for cell viability after α-Synuclein treatment: 200 nM and 500 nM. The source says:
The HEK293 cell line was used as it is commonly used in Parkinson's disease (PD) research (Schlachetzki et al., 2013). The cell culture media was made up from Dulbecco's Modified Eagle Medium (DMEM) (Hyclone) and Ham's F12 with a ratio of 1:1. The mixture was supplement with 1% penicillin/streptomycin (P/S) and 15% foetal bovine serum […] to create a supplemented media that will provide the cells with essential nutrients that include growth factors and P/S to prevent contamination with bacteria and fungi. The nutrient media was renewed when it was required. The cells were cultured at in an incubator, that maintains the humidity, pH, at 37° C. and 5% CO2 atmospheric composition to mimic in vivo conditions. Once the cells reached a confluency of 80%, they were passaged by washing with phosphate-buffered saline (PBS) followed by resuspension by the addition of trypsin-EDTA. Once the cells were re-suspended media was added to inactivate the trypsin and the cell suspension was diluted into a new flask. Fresh media was added to both flasks. Both transfected and non-transfected cells were harvested for further applications. […] SH-SY5Y cells were also received after transfection was confirmed. The cells were maintained in the same conditions as the HEK293 cells. The SH-SY5Y cells were used for the […] cell viability assay. LRP::FLAG overexpressing HEK293 cells in the presence of 1-Methyl-4-phenylpyridinium iodide (MPP+), a PD inducer, was also investigated. Late stage colorectal carcinoma cells (DLD-1) cells were used for certain confocal microscopy studies with parkin protein.
The effects of treatment of cells with a specific substance or protein on cell viability can be determined by the MTT (3-(4,5-dimethylthiazol-2-yl)-2,5-diphenyltetrazolium bromide) assay (Riss et al., 2016). […] The samples were then added to a 96-well plate at 100 μl in duplicates and the absorbance was read at 570 nm using an ELISA plate reader. High absorbance is indicative of a high number of viable cells. […]

The target of experiment [1] is 37 kDa/67 kDa laminin receptor precursor/high affinity laminin receptor (LRP/LR) (human) (UniProt P08865). In words: cell-based or functional assay.

Sequence of parkin (O60260 whole entry): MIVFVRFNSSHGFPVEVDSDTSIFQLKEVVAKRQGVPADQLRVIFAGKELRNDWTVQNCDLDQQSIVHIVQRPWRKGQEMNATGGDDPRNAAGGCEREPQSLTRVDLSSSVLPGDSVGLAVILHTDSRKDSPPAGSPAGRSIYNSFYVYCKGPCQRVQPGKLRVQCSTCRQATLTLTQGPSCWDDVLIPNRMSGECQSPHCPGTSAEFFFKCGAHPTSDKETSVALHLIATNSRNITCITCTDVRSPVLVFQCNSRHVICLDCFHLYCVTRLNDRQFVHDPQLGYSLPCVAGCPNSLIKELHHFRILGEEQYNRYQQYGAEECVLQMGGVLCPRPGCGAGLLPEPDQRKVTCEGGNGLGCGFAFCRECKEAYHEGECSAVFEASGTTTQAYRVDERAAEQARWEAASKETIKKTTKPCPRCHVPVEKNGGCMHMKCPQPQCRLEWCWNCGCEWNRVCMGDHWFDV

Turning to `O=C(O)c1ccc(O)c(O)c1` [PCA, protocatechuic acid], the “cell viability with positive control” value was “significant decrease” in the experiment with HEK293 cells (HEK293 transfected and non-transfected cell lines); “significant decrease” in the experiment on SH-SY5Y cells (SH-SY5Y transfected and non-transfected cell lines).
α-Synuclein: the “cell viability after α-Synuclein treatment” value was “decreased significantly” in the experiment with HEK293 cells (HEK293 non-transfected cells, 48 hours); “slight decrease” in the experiment on HEK293 cells (LRP::FLAG overexpressing and non-transfected HEK293 cells); “no decrease” in the experiment on SH-SY5Y cells (LRP::FLAG overexpressing and non-transfected SH-SY5Y cells); “no significant increase or decrease” in the experiment on SH-SY5Y cells (SH-SY5Y non-transfected cells, 48 hours).
For the compound “parkin (from UniProt O60260 1-465) (enzyme)”, in experiment [1], the percent of LRP colocalizing with parkin, confocal microscopy, DLD-1 cells overexpressing LRP::FLAG (total LRP stained) came to 22%; the percent of LRP/LR colocalizing with parkin, confocal microscopy, DLD-1 cells came to 54%; the percent of parkin colocalizing with LRP, confocal microscopy, DLD-1 cells overexpressing LRP::FLAG (total LRP stained) was 99%; the percent of parkin colocalizing with LRP/LR, confocal microscopy, DLD-1 cells is 59%.
